Results taken from PubChem BioAssay AID1117347 (Cheminformatics & Chemogenomics Research Group (CCRG), …, 2015).
“And” between values parts separate entries of the source, which are not always exact repeats. Equal values may be shown once. The source made the active and inactive calls. The rule behind the calls is not given here.

Each compound was assayed on HeLa cell count decrease (assay: decrease in HeLa cell numbers, dose-response curve, cell enumeration, 50% inhibitory concentration (AID 1117347)).
`Cc1ccc2c(c1)c1c3n2CCNC3CCC1` (stereo not drawn) was tested, and the IC50 was > 10000 nM (inactive). For `COC(=O)Nc1nc2ccc(C(=O)C3CC3)cc2[nH]1`, the IC50 was 297 nM. For `COC(=O)Nc1nc2ccc(Sc3ccccc3)cc2[nH]1`, the IC50 was 9.7 nM. In the case of `O=C(O)CN(CCN(CC(=O)O)CC(=O)O)CCN(CC(=O)O)CC(=O)O`, the IC50 is reported as > 10000 nM (inactive). With `O=C(O)CCc1nc2ccccc2[nH]1` the IC50 was > 10000 nM (inactive). `O=C1C(I)=CC(=C(c2cc(I)c(O)c(I)c2)c2ccccc2C(=O)O)C=C1I` was tested, and the IC50 was > 10000 nM (inactive). `Fc1ccc(C(OCCN2CCN(CCCc3ccccc3)CC2)c2ccc(F)cc2)cc1` was tested, and the IC50 was 3200 nM. In the case of `CCCCCCCCCCCCCCCCNc1ccc(C(=O)O)cc1`, the IC50 is reported as > 10000 nM (inactive). In the case of `CCCCCCCCCCCC(=O)[O][Sn]([CH2]CCC)([CH2]CCC)[O]C(=O)CCCCCCCCCCC`, the IC50 is reported as > 10000 nM (inactive). `CCCCCCCCCCCCCC[N+](C)(C)C` showed an IC50 of 3320 nM. `CCCCCCCCCCCCCCCCCCNC(=O)OC1CCN(C(=O)OC[C@H](COC(=O)N(Cc2cccc[n+]2CC)C(=O)c2ccccc2OC)OC)CC1` was tested, and the IC50 was 6140 nM (inactive). For `CC[C@]1(O)C[C@@H]2CN(CCc3c([nH]c4ccccc34)[C@@](C(=O)OC)(c3cc4c(cc3OC)N(C)[C@H]3[C@@](O)(C(=O)OC)[C@H](OC(C)=O)[C@]5(CC)C=CCN6CC[C@]43[C@@H]65)C2)C1`, the IC50 was 5.21 nM and 2.6 nM. With `O=C(O)c1ccc(-n2nc(-c3ccccc3O)nc2-c2ccccc2O)cc1` the IC50 was 5680 nM (inactive). In the case of `NCCNc1ccc(NCCN)c2c1C(=O)c1ccncc1C2=O`, the IC50 is reported as 42.1 nM. `CC[C@@H]([C@H](C)O)n1ncn(-c2ccc(N3CCN(c4ccc(OC[C@@H]5CO[C@@](Cn6cncn6)(c6ccc(F)cc6F)C5)cc4)CC3)cc2)c1=O` was tested, and the IC50 was > 10000 nM (inactive). For `CC(CC1c2ccccc2CCc2ccccc21)CN(C)C` (stereo not drawn), the IC50 was > 10000 nM (inactive). With `CCCCCCC[N+](CC)(CC)CCCCc1ccc(Cl)cc1` the IC50 was > 10000 nM (inactive). Work on `COc1cc(-c2ccc(=O)[nH]n2)ccc1OC(F)F` yielded an IC50 of 9.2 nM. `O=C(Nc1ccc(Br)cc1)c1cc(Br)cc(Br)c1O` was tested, and the IC50 was > 10000 nM (inactive). For `CCN(CC)CCCC(C)Nc1c2ccc(Cl)cc2nc2ccc(OC)cc12` (stereo not drawn), the IC50 was 1330 nM. With `CN(Cc1cnc2nc(N)nc(N)c2n1)c1ccc(C(=O)N[C@@H](CCC(=O)O)C(=O)O)cc1` the IC50 was > 10000 nM (inactive). With `CC(=O)O[C@@]12CO[C@@H]1C[C@H](O)[C@@]1(C)C(=O)[C@H](O)C3=C(C)[C@@H](OC(=O)[C@H](O)[C@@H](NC(=O)OC(C)(C)C)c4ccccc4)C[C@@](O)([C@@H](OC(=O)c4ccccc4)[C@H]21)C3(C)C` the IC50 was 1 nM. `Cc1cc(N)c2ccccc2[n+]1CCCCCCCCCC[n+]1c(C)cc(N)c2ccccc21` was tested, and the IC50 was > 10000 nM (inactive). `Cc1cc(O)c2ccccc2c1O` was tested, and the IC50 was 2460 nM. Work on `C=C(C)[C@H]1Cc2c(ccc3c2O[C@@H]2COc4cc(OC)c(OC)cc4[C@@H]2C3=O)O1` yielded an IC50 of 153 nM. With `O=c1[nH]c(=O)n([C@H]2C[C@H](O)[C@@H](CO)O2)cc1F` the IC50 was > 10000 nM (inactive). `CCCCCCCCCCCCCCCC[N+](C)(C)CCN(Cc1ccc(OC)cc1)c1ncccn1` gave an IC50 of 349 nM. With `O=C1c2c(O)ccc(O)c2C(=O)c2c(NCCNCCO)ccc(NCCNCCO)c21` the IC50 was 3.1 nM. In the case of `O=C(NOCC1CC1)c1ccc(F)c(F)c1Nc1ccc(I)cc1Cl`, the IC50 is reported as > 10000 nM (inactive). For `CN(C)CCOC(c1ccccc1)c1ccc(Br)cc1` (stereo not drawn), the IC50 was > 10000 nM (inactive). Work on `C[C@@]12C(=O)OC(=O)[C@]1(C)C1CCC2O1` yielded an IC50 of 1010 nM. For `O=C(O)CCCc1ccc(N(CCCl)CCCl)cc1`, the IC50 was > 10000 nM (inactive). `CCCCCCCCCCCCCCCC[N+](C)(C)Cc1ccccc1` was tested, and the IC50 was > 10000 nM (inactive). For `COc1ccc(Cc2nccc3cc(OC)c(OC)cc23)cc1OC`, the IC50 was > 10000 nM (inactive). With `[O-][n+]1ccccc1SSc1cccc[n+]1[O-]` the IC50 was 842 nM. `O=c1[nH]cc(F)c(=O)[nH]1` was tested, and the IC50 was > 10000 nM (inactive). `Cc1cc(C2CCCCC2)n(O)c(=O)c1` showed an IC50 of 569 nM. In the case of `O=C(CCBr)N1CCN(C(=O)CCBr)CC1`, the IC50 is reported as > 10000 nM (inactive). Compound `COC(=O)Nc1nc2ccc(C(=O)c3ccccc3)cc2[nH]1` has an IC50 of 54.2 nM. For `CC(C)c1c(C(=O)Nc2ccccc2)c(-c2ccccc2)c(-c2ccc(F)cc2)n1CC[C@@H](O)C[C@@H](O)CC(=O)O`, the IC50 was > 10000 nM (inactive). In the case of `O=c1[nH]c(=O)n([C@H]2C[C@H](O)[C@@H](CO)O2)cc1Br`, the IC50 is reported as > 10000 nM (inactive). `O=C1C2CC=CCC2C(=O)N1SC(Cl)(Cl)Cl` (stereo not drawn) gave an IC50 of 1780 nM. `COc1cc(NCc2ccc3nc(N)nc(N)c3c2C)cc(OC)c1OC` was tested, and the IC50 was 3810 nM. With `Cc1cc(CC(C)CC(C)(C)C)n(O)c(=O)c1` (stereo not drawn) the IC50 was 133 nM. In the case of `Cc1ccc(Nc2nccc(N(C)c3ccc4c(C)n(C)nc4c3)n2)cc1S(N)(=O)=O`, the IC50 is reported as > 10000 nM (inactive). With `Cc1c(C)c2c(c(C)c1O)CCC(C)(COc1ccc(CC3SC(=O)NC3=O)cc1)O2` (stereo not drawn) the IC50 was > 10000 nM (inactive). `O=c1[nH]c(=O)n([C@H]2C[C@H](O)[C@@H](CO)O2)cc1I` was tested, and the IC50 was > 10000 nM (inactive). With `O[C@@H](CNC[C@H](O)[C@H]1CCc2cc(F)ccc2O1)[C@@H]1CCc2cc(F)ccc2O1` the IC50 was 5560 nM (inactive).
